# Measurements published in patent US20160046616A1, “NRF2 SMALL MOLECULE INHIBITORS FOR CANCER THERAPY” (THE JOHNS HOPKINS UNIVERSITY, priority 2013, published 2016).
# pIC50: −log10 of the molar value. Entries after “also recorded” stand apart in the source; their conditions may differ.
# Assays:
# [1] = system: A549 lung cancer cells; test: Clonogenic assay in A549 lung cancer cells; assay type: cell-based; details: combination with chemotherapeutic drug
# Description: For the clonogenic assay, exponentially growing cells were counted, diluted, and seeded in triplicate at 1,000 cells/well in a 6-well plate. Cells were incubated for 24 h in a humidified CO2 incubator at 37° C., and exposed to drugs or vehicle for 48 h. The chemotherapeutic drugs, etoposide, cisplatin, or carboplatin were added to some of the samples to see the effect of the drug in the presence and absence of the small inhibitors of Nrf2. After the treatment period, the drug containing media was replaced with complete growth media. To assess clonogenic survival following the drug treatment, A549 cells from a type of non-small cell lung cancer cell line were incubated in complete growth medium at 37° C. for 10-14 days and then stained with 50% methanol-crystal violet solution. Only colonies with more than 50 cells were counted (final concentration of DMSO in the growth media was 0.1%).
# (§1) For the clonogenic assays, 1,000 cells/well were plated in a 6-well plate. The next day, the cells were treated with vehicle (DMSO), Nrf2 inhibitor, a chemotherapeutic drug, or a combination of Nrf2 and chemotherapeutic drugs for 48 hrs. The drug containing media was then replaced with regular growth media and the cells were incubated for an additional 10 days. At the end of incubation period, the colonies were stained with Crystal Violet and imaged.
# [2] = In vivo pharmacokinetic plasma profile; details: CD-1 mice; for Compound retained in the blood until / Time by which most of the compound is cleared from the blood: IP 30 mg/kg, IV 3 mg/kg, plasma
# Description: For the in vivo pharmacokinetic studies, single intraperitoneal (IP; 30 mg/kg) and intravenous (IV; 3 mg/kg) injection was carried out using CD-1 mice. (n=3 per group/time point). Compounds in the plasma were quantified using Mass Spectrometry.
# [3] = system: H460 xenograft tumors; test: H460 lung cancer xenograft assay (flank); assay type: in vivo, athymic nude mice; details: for Growth of H460 xenograft tumors, combination with carboplatin / Growth of H460 xenograft tumors, single agent: nude mice
# Description: For each group, pretreatment available lung volume was defined as 100% and compared with post-treatment lung volumes.
# A549 cells were injected in the flanks of athymic nude mice and once tumor volume reached 50-100 mm^3, treatment was initiated. Vehicle, carboplatin (20 mg/kg; 2 days/week), compound#1 (20 mg/kg 4 days/week) or a combination of compound 1 and carboplatin was administered for four weeks. Values represent tumor volume ±s.e.m. for all groups. […] Tumors were excised and weight at the end of treatment period. […] H460 cells were injected in the flanks of athymic nude mice and once tumor volume reached 50-100 mm^3, treatment was initiated. Vehicle, carboplatin (10 mg/kg; 5 days/week), compound 1 (30 mg/kg 5 days/week) or a combination of compound 1 and carboplatin was administered for three weeks. Values represent tumor volume ±s.e.m.;
# For the H460 lung cancer xenograft assay, two million cells in 100 μL of PBS were implanted in the flank of nude mice. One week post cell implantation, when the tumors were about 50 to 100 mm^3 in dimension, the mice were randomly divided into four groups: vehicle, chemotherapeutic drug, Nrf2 inhibitor and chemotherapeutic drug with an Nrf2 inhibitor. The mice were treated with the drugs for 2 to 4 weeks. Tumor volume was recorded biweekly.
# [4] = system: pancreatic cancer cells (Panc1); test: Clonogenic assay in Panc1 pancreatic cancer cells; assay type: cell-based; details: for Growth of Panc1 cells, combination with gemcitabine: gemcitabine (10 nM in figure legends)
# Description: (§2) (A-B) Panc1 and MiaPaCa cells were treated gemcitabine (10 nM) singly or in combination with compound 1 for 72 h. At the end of treatment, regular growth media was added and cells were further incubated for 8-10 days and stained with crystal violet;
# as §1
# [5] = system: mRNA expression of Nrf2 and its downstream target genes, GCLm and NQO1, A549 cells; test: Real time RT-PCR of Nrf2 and downstream target genes in A549 cells; assay type: cell-based; details: for Nrf2 (and GCLm, NQO1) expression, real time PCR based validation / NRF2 signaling, fold change in mRNA by real time RT-PCR: A549 cells; for NRF2 signaling, fold change in mRNA by real time RT-PCR: 48 h (compounds 1, 3), 72 h (compound 4)
# Description: […] The mRNA expression of Nrf2 and its downstream target genes, GCLm and NQO1 was measured by RT-PCR. (NC means no significant change in gene expression in comparison with vehicle group; M represents the concentration of drug used in the gene expression studies and it is twice the IC50 values generated from primary screening with A549-ARE reporter cell lines).
# [6] = system: pancreatic cancer cells (MiaPaCa); test: Clonogenic assay in MiaPaCa pancreatic cancer cells; assay type: cell-based; details: for Growth of MiaPaCa cells, combination with gemcitabine: gemcitabine (10 nM in figure legends)
# Description: as §2, §1
# [7] = system: H838 NRF2-ARE-Fluc stable cell line; test: H838 Nrf2 assay: NRF2-ARE firefly luciferase reporter gene assay; assay type: cell-based; details: Homo sapiens, NCI-H838, read-out: Potency of inhibition, H838
# Description: H838 is a NSCLC cell line with LOF Keap1 activity and constitutive translocation of NRF2 into the nucleus. A firefly luciferase reporter construct driven by a minimal promoter of NRF2-specific ARE is stably expressed in the H838 cells. This cell line was used as a confirmation assay to make sure hits identified from primary screening and that passed counterscreen assays worked in different cell types with a constitutively active NRF2 pathway (deficiency in Keap1).
# This assay was very similar to the primary assay except that the cell line was changed. […] The final concentration of DMSO was maintained at 0.46%. Control compounds Budesonide and Staurosporine were both added at a concentration of 2 mM and Budesonide was also added as a 1:10 titration, starting at 200 μM, to achieve dose-response. After an 18-24 hour incubation at 37° C., 95% humidity, and 5% CO2, 1 μL of 5× CellTiter-Fluor non-lytic cell viability assay reagent (Promega, Madison Wis.) was added into the each well of the plates. The plates were then incubated for 30 minutes at room temperature before they were read on a ViewLux plate imager (Perkin Elmer, Waltham Mass.) using an excitation wavelength of 405 nm and an emission wavelength of 525 nm.
# Representative compounds were assayed to assess the potency of inhibition in an A549 NRF2-ARE-Fluc stable cell line (A549 Nrf2 assay), in an H838 NRF2-ARE-Fluc stable cell line (H838 Nrf2 assay), and in an H1437 NRF2-ARE-Fluc stable cell line (H1437 Nrf2 assay) (see Table 3).
Compound retained in the blood until [2],Time by which most of the compound is cleared from the blood [2],pIC50 [7],SMILES,"Cytotoxicity of chemotherapeutic drugs in combination with the compound, clonogenic assay [1]","Growth of H460 xenograft tumors, combination with carboplatin [3]","Growth of H460 xenograft tumors, combination with carboplatin ([3]; listed as ML385)","Growth of H460 xenograft tumors, single agent ([3]; single agent)","Efficacy of compound alone relative to carboplatin, H460 tumors ([3]; single agent)","Growth of Panc1 cells, single agent [4]","Growth of Panc1 cells, combination with gemcitabine [4]","NRF2 and its target genes, time course ([5]; 5 μM)","Nrf2 (and GCLm, NQO1) expression, real time PCR based validation [5]","NRF2 signaling, fold change in mRNA by real time RT-PCR [5]","Growth of MiaPaCa cells, single agent [6]","Growth of MiaPaCa cells, combination with gemcitabine [6]","Retention time in the blood, comparison of compounds 3, 4 and 1 [2]","Nrf2, GCLm, and NQO1 gene expression, real time PCR based validation assay ([5]; cell line not given)","NQO1 and GCLm expression, real time PCR ([5]; A549 and H1437 cells)"
about 12 hr,≤ 24 h,4.60 to 5.30,Cc1ccccc1C(=O)N1CCc2cc(-c3nc(NC(=O)Cc4ccc5c(c4)OCO5)sc3C)ccc21 [compound 4],more effective in combination with a chemotherapeutic drug; also recorded: potentiates the toxicity of standard care chemotherapy drugs,sensitized H460 lung tumors to carboplatin drug therapy,significant reduction in tumor volume and weight,significant reduction in tumor volume and weight,comparable to carboplatin,suppressed the growth of two different pancreatic cell lines; also recorded: significant growth inhibitory activity as single agent,enhance the cytotoxicity of gemcitabine; also recorded: potentiates the cytotoxicity of standard care chemotherapy drugs (gemcitabine),Time dependent reduction in NRF2 and its target genes,"significant reduction in Nrf2, GCLm, and NQO1 expression",inhibits NRF2 signaling,suppressed the growth of two different pancreatic cell lines; also recorded: significant growth inhibitory activity as single agent,enhance the cytotoxicity of gemcitabine; also recorded: potentiates the cytotoxicity of standard care chemotherapy drugs (gemcitabine),–,–,–
about 24 hr,–,> 5.30,O=C(Nc1ncc(Cc2ccc(C(F)(F)F)cc2)s1)c1ccc(-c2cccc([N+](=O)[O-])c2)o1 [Compound 1],more effective in combination with a chemotherapeutic drug,shows anti-tumor efficacy in combination with carboplatin,–,–,–,suppressed the growth of two different pancreatic cell lines,enhance the cytotoxicity of gemcitabine; also recorded: potentiates the cytotoxicity of standard care chemotherapy drugs (gemcitabine),–,–,inhibit NRF2 signaling,suppressed the growth of two different pancreatic cell lines,enhance the cytotoxicity of gemcitabine; also recorded: potentiates the cytotoxicity of standard care chemotherapy drugs (gemcitabine),retained in the blood for the longest time,"decrease in Nrf2, GCLm, and NQO1 gene expression",–
–,about 8 hrs,> 5.30,CC1(C)CC2CC(C)(CN2S(=O)(=O)c2ccc(C(=O)Nc3ccc(Cl)c(S(=O)(=O)N4CCOCC4)c3)cc2)C1 (stereo not drawn) [compound 3],enhance the cytotoxicity of standard care chemotherapeutic drugs,inhibited the growth,–,inhibited the growth,–,suppressed the growth of two different pancreatic cell lines; also recorded: significant growth inhibitory effect as a single agent,enhance the cytotoxicity of gemcitabine,–,inhibit Nrf2 expression,inhibit NRF2 signaling,suppressed the growth of two different pancreatic cell lines; also recorded: significant growth inhibitory effect as a single agent,enhance the cytotoxicity of gemcitabine,cleared the fastest,–,Inhibition of NQO1 expression as well as some inhibition of GCLm expression
